In a melting point compilation (Tetko et al.; mined from patent text by program, amines drawn as free bases though some values may be those of a salt):

SMILES | melting point [°C]
Cc1ccc(N2CCSC2N)c([N+](=O)[O-])c1 (centres undefined) | 132 to 134
CCCN(CCC)C1Cc2cccc3c2N(C1)C(=O)NC3 (centres undefined) | 116 to 119
CCOC(=O)C(C(=O)Nc1nccs1)C(=O)c1cccc(C(F)(F)F)c1NC(=O)C(Cl)Cl (centres undefined) | 90
CCOC(=O)c1cc2cc(OCCCOC)cc(N(C)S(=O)(=O)c3ccccn3)c2[nH]1 | 98 to 99
CCONC(=O)c1cccc(-c2nc3ccccc3c(=O)o2)c1 | 179 to 183
Cc1nnc2ccc(-c3ccc(F)cc3)nn12 | 227 to 229
CCCCOc1ccc(S(N)(=O)=O)cc1 | 99 to 101
CCCCC(C(=O)Nc1c(C(C)C)cccc1C(C)C)C1c2ccccc2Oc2ccccc21 (centres undefined) | 188 to 189
CN(C)CCCn1c2ccc(O)cc2c2c3c(c(-c4ccccc4)cc21)C(=O)NC3=O | 185 to 189
COc1ccc2c(c1)C(N=Cc1ccc(O)c(OC)c1)CCO2 (centres undefined) | 136 to 139
CC(C)(C)N1Sc2ccccc2C1O (centres undefined) | 114 to 116
CCC1C(C)=NN=C(c2ccccc2C)c2cc(OC)c(OC)cc21 (centres undefined) | 170 to 171
CCC1Cc2c(N3CCOCC3)c(F)cc3c(=O)c(C(=O)O)cn1c23 (centres undefined) | 275 to 278
CC(C)(C)c1cc(C(=O)NCc2ccc3c(Br)c(OC(Cc4ccccc4)C(=O)O)ccc3c2)cc(C(C)(C)C)c1 (centres undefined) | 160 to 163
CC(C)CC1=CC(c2cccc([N+](=O)[O-])c2)C2=C(CCCC2=O)N1 (centres undefined) | 158 to 160
CCc1oc2ccc([N+](=O)[O-])cc2c1C(=O)c1ccc(O)cc1 | 152
CC(C)N(C[C@H](O)CO)S(C)(=O)=O | 67 to 70
CC12CCC3C(CC=C4CCCCC43C)C1CC(F)C2=O (centres undefined) | 228 to 230
CC12CCC(=O)NC1=CCc1ccccc12 (centres undefined) | 123 to 124
O=C1Cc2c(cccc2C(=O)O)Sc2ccccc21 | 230 to 232
N#Cc1nn(-c2c(Cl)cc(C(F)(F)F)cc2Cl)c(NCc2ccncc2)c1SCF | 204
Cc1csc(N2CCN(Cc3ccc(C(=O)O)cc3)C2=O)n1 | 222 to 224
CC(C)(CO)NS(=O)(=O)c1cc([N+](=O)[O-])c(Cl)s1 | 113

SMILES | melting point [°C]
COc1cc(F)ccc1-c1ccc(S(=O)(=O)N2c3ccccc3CC2C(=O)NCc2ccccc2NCCC(=O)O)cc1 (centres undefined) | 121 to 125
Cc1cccc2[nH]c(S(=O)Cc3cccn4ccnc34)nc12 (centres undefined) | 166 to 168
Cc1c(CC(=O)NCCCO[N+](=O)[O-])cc(-c2ccc(S(C)(=O)=O)cc2)n1-c1ccc(F)cc1 | 127
CCCCC(Cc1ccc(OCCNC(=O)c2ccc(-c3ccc(CO)cc3)cc2)cc1)C(=O)O (centres undefined) | 111 to 113
CCOC(=O)NNC(=O)NCCCC(=O)OC | 95 to 96
COc1ccc(Nc2nc(N3CCOCC3)nc(-n3c(C(F)F)nc4c(OC)cccc43)n2)cn1 | 201 to 202
CN1CC=CC(c2cc3ccccc3o2)C1 (centres undefined) | 63
COc1cc2c3c(cccc3c1Br)C(=O)N(O)C2=O | 250 to 253
CCOC(=O)c1nc(-c2cccc(Cl)c2)c(-c2ccc(=O)n(C(C)C)n2)s1 | 134 to 136
COC(=O)CN1C(=O)c2c(c3cc(C)ccc3n2C)S1(=O)=O | 248
O=[N+]([O-])c1ccc(Oc2ccc(C(F)(F)F)cc2Cl)nc1 | 69 to 72
CCS(=O)c1cn(C)cc(-c2cccc(C(F)(F)F)c2)c1=O (centres undefined) | 146 to 148
CCOC(=O)CN[C@H]1CSc2ccccc2N(CC(=O)O)C1=O | 223 to 226
CCOC(=O)COc1ccc(C2=NNC(=O)NC2)cc1 | 181 to 183
CCOC(=O)C(F)=C(C)NC(=O)Nc1cc(C(=O)OC(C)C)c(Cl)cc1F | 150 to 152
O=C(N1CCCC1)N1CCN(Cc2ccc3c(c2)-c2[nH]nc(-c4ccsc4)c2C3)CC1 | 214 to 216
Cc1ccc2c(N)c(Cl)ccc2n1 | 196 to 197
COc1cc2c(cc1C(F)(F)F)N(C(=O)Nc1ccc(CN(C)C)cc1)CC2 | 169 to 170
C[C@H](NS(=O)(=O)c1ccc(-c2c(C#N)c3cc(F)c(OC(F)F)cc3n2C2CCC2)nc1)C(F)(F)F | 172 to 175
CC(C)CC(S)C(=O)NC1(C(=O)NC(CC2(c3cccc4ccccc34)C=CC(c3ccccc3)=CC2)C(=O)O)CCCC1 (centres undefined) | 187 to 189
Clc1cccc(Cl)c1NCC1CC1 | 149 to 158
CC(=O)N1CCN2C(=O)N(c3cc(Cl)cc(Cl)c3)C(=O)C2(Cc2ccc(Br)cc2)C1 (centres undefined) | 89.6
O=C1c2ccccc2C(=O)N1OCCc1cn(C(c2ccccc2)(c2ccccc2)c2ccccc2)cn1 | 177

SMILES | melting point [°C]
COc1ccc(C(C#N)CNC(=O)C(N)=O)cc1OC1CCCC1 (centres undefined) | 176 to 177
CC(C)C(=O)c1cn(Cc2c(F)cccc2F)c2sc(-c3ccc(NC(=O)C(C)(C)O)cc3)c(CN(C)Cc3ccccc3)c2c1=O | 178 to 180
COc1ccc(-c2c(Br)c(CBr)nc3sc4c(c23)CCN(Cc2ccccc2)C4)cc1 | 177 to 178
CNC(=S)n1nc(Oc2c(Cl)cc(C(F)(F)F)cc2Cl)cc1C | 121 to 123
COc1cc2c3c([nH]c2cc1O)-c1ccccc1C3=O | > 260
OC(CCCN1CCN(c2ncc(F)cn2)CC1)c1ccc(F)c2ccccc12 (centres undefined) | 129 to 131
COC1OCC[C@@H]1NC(=O)[C@H](CC(C)C)NC(=O)[C@H](CC(C)C)NC(=O)OCc1ccccc1 (some centres undefined) | 76 to 77
S=C(NCc1ccccc1)Nc1nccs1 | 165 to 167
O=C(O)c1cc(Br)cc2c1NCCS2=O (centres undefined) | 254 to 255
CC(C)Cn1c(=O)n(C)c(=O)c2c(Sc3nnc[nH]3)c(Cc3csc4ccccc34)sc21 | 237 to 238
Cc1ccc(Sc2c(O)c3ccc(Cl)cc3[nH]c2=O)cc1C | 267 to 268
Cc1cc(SCc2ccc(OCc3ccc(Cl)cc3)cc2)ccc1OCC(=O)O | 164
Cc1ccc(S(=O)(=S)OCCCCCCCCCCOS(=O)(=S)c2ccc(C)cc2)cc1 (centres undefined) | 76 to 82
O=C(c1ccccc1)C(O)n1cncc1Cl (centres undefined) | 201 to 203
CCn1ncc2c1ncc1c(=O)n(C)c3ncnn3c12 | 208 to 210
COC(=O)C1CN(Cc2ccccc2)c2ccccc2CN1S(=O)(=O)c1ccc(OC)cc1 (centres undefined) | 120 to 122
CC#CCOc1ccc(S(=O)(=O)N2Cc3ccccc3N(C(=O)c3ccco3)CC2C(=O)OC)cc1 (centres undefined) | 119 to 120
COc1ccccc1C1(O)C(O)CC(c2ccccc2)(c2ccccc2)C2CN(C(=O)Cc3ccccc3O)CC21 (centres undefined) | 188 to 190
C=CCOc1ccc2c(c1)CCC(=O)N2 | 123 to 125
O=C(N[C@H]1CC[C@H](N2CCN(c3ccccn3)CC2)CC1)c1ccccc1 | 241 to 244
CCCCCCCCCNC(=O)Nc1ccccc1C(=O)NC1CCN(C(c2ccccc2)c2ccccc2)CC1 | 149 to 150
CC(=O)c1ccc(OC(=O)c2c3ccccc3nc3ccccc23)cc1 | 214 to 215
CC1CC(C)(C)Nc2ccc3c(c21)C(c1ccc(Cl)cc1)Oc1ccccc1-3 (centres undefined) | 158 to 159
